Measured values taken from PubChem BioAssay (NCI).
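Protocol summary: plate cells (96-well), add compound at 5 concentrations, incubate 48 h, interpolate endpoints linearly. GI50 is the concentration that inhibits growth by half. The concentration for full growth arrest is given as TGI.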

Experiments:
Assay in all cases: NCI anticancer screen, dose series, 48 h
[1] = tested on: MCF7 breast
[2] = tested on: T-47D breast
[3] = tested on: EKVX NSCLC
[4] = tested on: COLO 205 colon
[5] = tested on: SK-MEL-5 melanoma
[6] = tested on: HS 578T breast
[7] = tested on: NCI/ADR-RES ovarian
[8] = tested on: PC-3 prostate
[9] = tested on: K-562 leukemia
[10] = tested on: DU-145 prostate

Row | Structure (SMILES) | GI50 [1] [µM] | TGI [1] [µM] | GI50 [2] [µM] | TGI [2] [µM] | GI50 [3] [µM] | TGI [3] [µM] | GI50 [4] [µM] | TGI [4] [µM] | GI50 [5] [µM] | TGI [5] [µM] | GI50 [6] [µM] | TGI [6] [µM] | GI50 [7] [µM] | GI50 [8] [µM] | TGI [8] [µM] | GI50 [9] [µM] | TGI [9] [µM] | GI50 [10] [µM] | TGI [10] [µM] | TGI [7] [µM]
1 | C#CC1(O)C(COP(=O)(O)OC2CC(n3cc(F)c(=O)[nH]c3=O)OC2CO)OC(n2ccc(N)nc2=O)C1O (centres undefined) | < 0.01 | 0.137 | < 0.0157 | > 51.7 | 0.738 | 16 | < 0.01 | 1.61 | < 0.0154 | 0.196 | 0.304 | > 35.4 | < 0.012 | < 0.032 | 29.7 | 0.0101 | > 100 | < 0.011 | 3.62 | –
2 | COc1ccc2c(Nc3ccc(NS(C)(=O)=O)cc3)c3ccccc3nc2c1 | 0.3 | 1.99 | 0.34 | 3.14 | 1.43 | 8.2 | 0.384 | 1.58 | 0.526 | 1.89 | 0.292 | 2.64 | 3.63 | 0.735 | 10.1 | 0.674 | > 100 | 0.315 | 6.46 | 28.6
3 | CC1=C[C@H]2c3c(c(O)c(O)c4oc5ccccc5c(=O)c34)[C@H](c3cc(O)c(O)c4oc5ccccc5c(=O)c34)[C@H]2C(C)(C)C1 | 0.772 | 11.1 | 0.764 | 19.3 | 1.44 | 12.8 | 2.8 | 9.73 | 1.17 | 2.51 | 0.379 | 9.89 | 3.07 | 1.1 | 16.5 | 0.22 | > 100 | 1.01 | 14.4 | 16.3
4 | CCN1C(=S)N(CC)C2C1NC(=S)N2/N=C/C=C/c1ccccc1 (centres undefined) | 0.513 | 16.4 | 3.55 | 18.2 | 4.19 | 34.7 | 1.11 | 4.4 | 1.19 | 10.7 | 2.11 | 8.96 | 1.54 | 1.52 | 16 | 0.382 | 14.1 | 2.42 | 12.2 | 12.6
5 | Nc1ccc(S(=O)(=O)C23CC4CC(CC(C4)C2)C3)cc1 | – | > 100 | – | > 100 | – | > 100 | – | > 100 | – | > 100 | – | > 100 | – | – | > 100 | – | > 100 | – | > 100 | > 100
6 | O=[N+]([O-])c1ccc(N/N=C/c2c(O)ccc3ccccc23)nc1 | 1.91 | > 100 | 6.39 | > 100 | 6.5 | > 100 | 30.5 | > 100 | 20.1 | > 100 | 57.8 | > 100 | 1.82 | 48.7 | > 100 | > 100 | > 100 | 6.77 | > 100 | > 100
7 | COc1ccc(/C=C/c2nc(NCCCN(C)C)c3ccccc3n2)cc1 | 1.72 | 3.23 | 1.81 | 3.61 | 5.17 | 21.1 | 1.8 | 3.3 | 1.71 | 3.27 | 3.22 | 11 | > 100 | 3.35 | 15.2 | 1.99 | 4.4 | 13.9 | 27 | > 100
